Source: patent US9409914B2, “Triazolo[4,5-d]pyrimidine derivatives” (Merck Patent GmbH, priority 2012, dated 2016)

Experiments:
GCN2 [1] = molecular target: T1, GCN2 (Homo sapiens, UniProt Q9P2K8); test: GCN2 enzyme assay (TR-FRET Lanthascreen, phosphorylation of GFP-eIF2alpha); format: biochemical; details: 10 μM ATP, 80 nM GFP-eIF2alpha, 30 nM GCN2, room temperature
Method in brief: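 Two-step TR-FRET (Lanthascreen) format: GCN2 incubated at room temperature with 10 μM ATP and 80 nM GFP-labelled eIF2alpha, then stopped with EDTA. Phospho-eIF2alpha detected by Tb-labelled antibody, excitation 340 nm; activity taken from the 520/495 nm emission ratio.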
Target sequence in this assay (Q9P2K8 whole entry, species assumed): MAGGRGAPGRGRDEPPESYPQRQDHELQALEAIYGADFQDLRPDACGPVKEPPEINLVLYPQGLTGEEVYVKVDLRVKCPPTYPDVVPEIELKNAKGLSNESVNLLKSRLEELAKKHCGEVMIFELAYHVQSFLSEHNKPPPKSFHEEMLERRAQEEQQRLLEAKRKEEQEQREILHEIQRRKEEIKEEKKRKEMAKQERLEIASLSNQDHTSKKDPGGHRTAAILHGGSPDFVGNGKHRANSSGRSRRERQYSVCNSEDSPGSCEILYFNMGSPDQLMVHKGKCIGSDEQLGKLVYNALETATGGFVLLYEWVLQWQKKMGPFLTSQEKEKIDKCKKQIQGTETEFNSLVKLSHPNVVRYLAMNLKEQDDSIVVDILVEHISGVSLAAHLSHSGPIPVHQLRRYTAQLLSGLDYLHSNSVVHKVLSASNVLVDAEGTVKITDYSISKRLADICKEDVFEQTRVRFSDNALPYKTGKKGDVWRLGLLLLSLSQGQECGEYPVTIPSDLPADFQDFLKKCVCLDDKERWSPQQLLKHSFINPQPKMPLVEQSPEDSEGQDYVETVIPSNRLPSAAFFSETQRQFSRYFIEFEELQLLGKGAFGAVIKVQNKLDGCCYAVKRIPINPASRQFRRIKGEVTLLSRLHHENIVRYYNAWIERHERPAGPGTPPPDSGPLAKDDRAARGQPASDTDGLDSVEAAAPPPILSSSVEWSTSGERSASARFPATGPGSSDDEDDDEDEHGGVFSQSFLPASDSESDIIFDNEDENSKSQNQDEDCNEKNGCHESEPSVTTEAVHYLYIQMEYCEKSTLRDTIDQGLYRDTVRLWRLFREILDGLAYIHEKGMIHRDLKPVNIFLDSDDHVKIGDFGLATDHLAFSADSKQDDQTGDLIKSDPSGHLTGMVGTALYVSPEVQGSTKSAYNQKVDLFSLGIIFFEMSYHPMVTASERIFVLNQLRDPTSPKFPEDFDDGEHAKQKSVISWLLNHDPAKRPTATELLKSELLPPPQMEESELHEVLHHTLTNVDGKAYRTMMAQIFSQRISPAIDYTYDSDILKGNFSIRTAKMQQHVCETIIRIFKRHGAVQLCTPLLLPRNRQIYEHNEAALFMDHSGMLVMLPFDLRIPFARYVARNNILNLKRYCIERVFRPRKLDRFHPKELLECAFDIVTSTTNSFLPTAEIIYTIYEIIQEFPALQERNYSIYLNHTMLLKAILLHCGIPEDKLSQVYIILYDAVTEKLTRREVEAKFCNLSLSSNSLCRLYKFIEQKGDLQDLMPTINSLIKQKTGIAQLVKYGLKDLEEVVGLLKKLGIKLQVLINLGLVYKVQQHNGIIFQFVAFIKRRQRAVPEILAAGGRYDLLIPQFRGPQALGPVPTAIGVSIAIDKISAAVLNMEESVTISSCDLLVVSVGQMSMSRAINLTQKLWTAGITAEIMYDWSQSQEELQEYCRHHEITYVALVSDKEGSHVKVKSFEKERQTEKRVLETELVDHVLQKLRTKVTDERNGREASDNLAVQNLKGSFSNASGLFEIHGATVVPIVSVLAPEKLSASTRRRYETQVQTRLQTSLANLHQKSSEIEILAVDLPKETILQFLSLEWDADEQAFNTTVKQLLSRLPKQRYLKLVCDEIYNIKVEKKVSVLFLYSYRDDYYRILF

GCN2 [2] = molecular target: T1, GCN2; test: Cellular assay for GCN2 activity (phospho-eIF2alpha immunocytochemistry, tryptophanol-stimulated U2OS cells); format: cell-based; design: endogenous in cells; host or cells: U2OS; details: 2 hours compound, then 600 μM tryptophanol 30 minutes, anti-phospho-eIF2alpha, read-out: IC50 GCN2 (cell assay)
Protocol: Cellular Assay for the Determination of Compound Activities
Human U2OS cells (2000 cells/well) are seeded into 384-well plates and incubated for 20 hours.
The next day, the cells are treated with the test compounds and incubated for 2 hours. Then, tryptophanol, at a final concentration of 600 μM, is added to the cells and those are incubated for 30 minutes.
The analysis of cellular GCN2 activities is done by immunocytochemistry. Briefly, cells are fixated on the well surfaces by formaldehyde and permeabilised with Triton X-100. The primary antibody (anti-phospho-eIF2alpha (Ser51, Cell Signalling Technology, #3398) is incubated on the treated cells for 20 hours, followed by a 60 minutes incubation of the secondary antibody (anti-rabbit-IgG-Alexa 488; Molecular Probes #11008). The analysis and quantification of phosphorylated GCN2 is done by scanning the plates in the Acumen Explorer system (TTPLabtech). The obtained data are normalised against the untreated control wells (DMSO only) and expressed as % effect values. The determination of IC50 values is done by using the Graph Pad Prism software.
Target sequence in this assay (Q9P2K8 whole entry): as the sequence (Q9P2K8 whole entry, species assumed) above

`c1nn(C2CCOCC2)cc1Nc1ncc2nnn(-c3ccc4cn[nH]c4c3)c2n1` [Compound A92, [3-(1H-indazol-6-yl)-3H-[1,2,3]triazolo[4,5-d]pyrimidin-5-yl]-[1-(tetrahydro-pyran-4-yl)-1H-pyrazol-4-yl]-amine] showed an IC50 (GCN2 [1]) of less than 0.3 µM and an IC50 (GCN2 [2]) of less than 0.3 µM.
In the case of `CN1CCC(n2cc(Nc3ncc4nnn(-c5ccc6[nH]ncc6c5)c4n3)cn2)CC1` [Compound A93, [3-(1H-indazol-5-yl)-3H-[1,2,3]triazolo[4,5-d]pyrimidin-5-yl]-[1-(1-methyl-piperidin-4-yl)-1H-pyrazol-4-yl]-amine], the IC50 (GCN2 [1]) is reported as less than 0.3 µM and the IC50 (GCN2 [2]) is reported as 3 to 50 µM.
Compound `CN1CCC(n2cc(Nc3ncc4nnn(-c5ccc6[nH]c(C(F)(F)F)nc6c5)c4n3)cn2)CC1` [Compound A95, [1-(1-methyl-piperidin-4-yl)-1H-pyrazol-4-yl]-[3-(2-trifluoromethyl-1H-benzoimidazol-5-yl)-3H-[1,2,3]triazolo[4,5-d]pyrimidin-5-yl]-amine] has an IC50 (GCN2 [1]) of less than 0.3 µM and an IC50 (GCN2 [2]) of 3 to 50 µM.
With `COCCOc1ccc(-n2nnc3cnc(Nc4cnn(C5CCNC5)c4)nc32)cc1` (stereo not shown) [Compound A96, {3-[4-(2-methoxy-ethoxy)-phenyl]-3H-[1,2,3]triazolo[4,5-d]pyrimidin-5-yl}-(1-pyrrolidin-3-yl-1H-pyrazol-4-yl)-amine] the IC50 (GCN2 [1]) was less than 0.3 µM and the IC50 (GCN2 [2]) was 0.3 to 3 µM.
In the case of `CCOc1ccc(-n2nnc3cnc(Nc4cnn(CCC5CCNCC5)c4)nc32)cc1` [Compound A97, [3-(4-ethoxy-phenyl)-3H-[1,2,3]triazolo[4,5-d]pyrimidin-5-yl]-[1-(2-piperidin-4-yl-ethyl)-1H-pyrazol-4-yl]-amine], the IC50 (GCN2 [1]) is reported as less than 0.3 µM and the IC50 (GCN2 [2]) is reported as 0.3 to 3 µM.
Work on `COCCOc1ccc(-n2nnc3cnc(Nc4cnn(C5CCN(C(C)=O)C5)c4)nc32)cc1` (stereo not shown) [Compound A99, 1-[3-(4-{3-[4-(2-methoxy-ethoxy)-phenyl]-3H-[1,2,3]triazolo[4,5-d]pyrimidin-5-ylamino}-pyrazol-1-yl)-pyrrolidin-1-yl]-ethanone] yielded an IC50 (GCN2 [1]) of less than 0.3 µM and an IC50 (GCN2 [2]) of 3 to 50 µM.
For `CCOc1ccc(-n2nnc3cnc(Nc4cnn(CCC5CCN(C(C)=O)CC5)c4)nc32)cc1` [Compound A100, 1-[4-(2-{4-[3-(4-ethoxy-phenyl)-3H-[1,2,3]triazolo[4,5-d]pyrimidin-5-ylamino]-pyrazol-1-yl}-ethyl)-piperidin-1-yl]-ethanone], the IC50 (GCN2 [1]) was less than 0.3 µM and the IC50 (GCN2 [2]) was 3 to 50 µM.
Compound `CN1CCC(n2cc(Nc3ncc4nnn(-c5ccc6nccnc6c5)c4n3)cn2)CC1` [Compound A101, [1-(1-methyl-piperidin-4-yl)-1H-pyrazol-4-yl]-(3-quinoxalin-6-yl-3H-[1,2,3]triazolo[4,5-d]pyrimidin-5-yl)-amine] has an IC50 (GCN2 [1]) of less than 0.3 µM and an IC50 (GCN2 [2]) of 3 to 50 µM.
In the case of `O[C@H]1CC[C@H](n2cc(Nc3ncc4nnn(-c5ccc(Cl)c(F)c5)c4n3)cn2)CC1` [Compound A103, 4-{4-[3-(4-chloro-3-fluoro-phenyl)-3H-[1,2,3]triazolo[4,5-d]pyrimidin-5-ylamino]-pyrazol-1-yl}-cyclohexanol], the IC50 (GCN2 [1]) is reported as less than 0.3 µM and the IC50 (GCN2 [2]) is reported as less than 0.3 µM.
`CCn1cc(Nc2ncc3nnn(-c4cnn(CC)c4)c3n2)cn1` [Compound A106, (1-ethyl-1H-pyrazol-4-yl)-[3-(1-ethyl-1H-pyrazol-4-yl)-3H-[1,2,3]triazolo[4,5-d]pyrimidin-5-yl]-amine] was tested, and the IC50 (GCN2 [1]) was less than 0.3 µM and the IC50 (GCN2 [2]) was 3 to 50 µM.
For `COCCOc1ccc(-n2nnc3cnc(Nc4cnn([C@H]5CC[C@@H](O)CC5)c4)nc32)cc1` [Compound A107, 4-(4-{3-[4-(2-methoxy-ethoxy)-phenyl]-3H-[1,2,3]triazolo[4,5-d]pyrimidin-5-ylamino}-pyrazol-1-yl)-cyclohexanol], the IC50 (GCN2 [1]) was less than 0.3 µM and the IC50 (GCN2 [2]) was 0.3 to 3 µM.
Work on `COCCOc1ccc(-n2nnc3cnc(Nc4cnn([C@H]5CC[C@H](O)CC5)c4)nc32)cc1` [Compound A108, 4-(4-{3-[4-(2-methoxy-ethoxy)-phenyl]-3H-[1,2,3]triazolo[4,5-d]pyrimidin-5-ylamino}-pyrazol-1-yl)-cyclohexanol] yielded an IC50 (GCN2 [1]) of less than 0.3 µM and an IC50 (GCN2 [2]) of 3 to 50 µM.
With `CN1CCC(n2cc(Nc3ncc4nnn(-c5ccc(F)c(Cl)c5)c4n3)cn2)CC1` [Compound A111, [3-(3-chloro-4-fluoro-phenyl)-3H-[1,2,3]triazolo[4,5-d]pyrimidin-5-yl]-[1-(1-methyl-piperidin-4-yl)-1H-pyrazol-4-yl]-amine] the IC50 (GCN2 [1]) was 0.3 to 3 µM and the IC50 (GCN2 [2]) was 3 to 50 µM.
Compound `CCOc1ccc(-n2nnc3cnc(Nc4cnn(CCN5CCOCC5)c4)nc32)cc1` [Compound A115, [3-(4-ethoxy-phenyl)-3H-[1,2,3]triazolo[4,5-d]pyrimidin-5-yl]-[1-(2-morpholin-4-yl-ethyl)-1H-pyrazol-4-yl]-amine] has an IC50 (GCN2 [1]) of less than 0.3 µM and an IC50 (GCN2 [2]) of 3 to 50 µM.
With `CCn1cc(Nc2ncc3nnn(-c4ccc(C(=O)OC)cc4)c3n2)cn1` [Compound A117, 4-[5-(1-ethyl-1H-pyrazol-4-ylamino)-[1,2,3]triazolo[4,5-d]pyrimidin-3-yl]-benzoic acid methyl ester] the IC50 (GCN2 [1]) was less than 0.3 µM and the IC50 (GCN2 [2]) was 0.3 to 3 µM.
For `CN1CCC(n2cc(Nc3ncc4nnn(-c5cccc(F)c5)c4n3)cn2)CC1` [Compound A118, [3-(3-fluoro-phenyl)-3H-[1,2,3]triazolo[4,5-d]pyrimidin-5-yl]-[1-(1-methyl-piperidin-4-yl)-1H-pyrazol-4-yl]-amine], the IC50 (GCN2 [1]) was less than 0.3 µM and the IC50 (GCN2 [2]) was 0.3 to 3 µM.
`CC(C)(O)c1ccc(-n2nnc3cnc(Nc4cnn(C5CCOCC5)c4)nc32)cc1` [Compound A119, 2-(4-{5-[1-(tetrahydro-pyran-4-yl)-1H-pyrazol-4-ylamino]-[1,2,3]triazolo[4,5-d]pyrimidin-3-yl}-phenyl)-propan-2-ol] showed an IC50 (GCN2 [1]) of less than 0.3 µM and an IC50 (GCN2 [2]) of 0.3 to 3 µM.
`CN1CCC(n2cc(Nc3ncc4nnn(-c5ccc(F)c(F)c5)c4n3)cn2)CC1` [Compound A120, [3-(3,4-difluoro-phenyl)-3H-[1,2,3]triazolo[4,5-d]pyrimidin-5-yl]-[1-(1-methyl-piperidin-4-yl)-1H-pyrazol-4-yl]-amine] showed an IC50 (GCN2 [1]) of 0.3 to 3 µM and an IC50 (GCN2 [2]) of 3 to 50 µM.
In the case of `CCn1cc(Nc2ncc3nnn(-c4ccc(C(C)(C)O)cc4)c3n2)cn1` [Compound A121, 2-{4-[5-(1-ethyl-1H-pyrazol-4-ylamino)-[1,2,3]triazolo[4,5-d]pyrimidin-3-yl]-phenyl}-propan-2-ol], the IC50 (GCN2 [1]) is reported as less than 0.3 µM and the IC50 (GCN2 [2]) is reported as 0.3 to 3 µM.
`Fc1cccc(-n2nnc3cnc(Nc4cnn(C5CCOCC5)c4)nc32)c1` [Compound A122, [3-(3-fluoro-phenyl)-3H-[1,2,3]triazolo[4,5-d]pyrimidin-5-yl]-[1-(tetrahydro-pyran-4-yl)-1H-pyrazol-4-yl]-amine] gave an IC50 (GCN2 [1]) of less than 0.3 µM and an IC50 (GCN2 [2]) of 0.3 to 3 µM.
In the case of `COc1ccc(-n2nnc3cnc(Nc4cnn(CCn5cccn5)c4)nc32)nc1` [Compound A124, [3-(5-methoxy-pyridin-2-yl)-3H-[1,2,3]triazolo[4,5-d]pyrimidin-5-yl]-[1-(2-pyrazol-1-yl-ethyl)-1H-pyrazol-4-yl]-amine], the IC50 (GCN2 [1]) is reported as less than 0.3 µM and the IC50 (GCN2 [2]) is reported as 3 to 50 µM.
Compound `CCOc1ccc(-n2nnc3cnc(Nc4cnn(CCCC5CCNCC5)c4)nc32)cc1` [Compound A125, [3-(4-ethoxy-phenyl)-3H-[1,2,3]triazolo[4,5-d]pyrimidin-5-yl]-[1-(3-piperidin-4-yl-propyl)-1H-pyrazol-4-yl]-amine] has an IC50 (GCN2 [1]) of less than 0.3 µM and an IC50 (GCN2 [2]) of less than 0.3 µM.
Work on `Fc1cccc(-n2nnc3cnc(Nc4cnn(CCn5cccn5)c4)nc32)c1` [Compound A126, [3-(3-fluoro-phenyl)-3H-[1,2,3]triazolo[4,5-d]pyrimidin-5-yl]-[1-(2-pyrazol-1-yl-ethyl)-1H-pyrazol-4-yl]-amine] yielded an IC50 (GCN2 [1]) of less than 0.3 µM and an IC50 (GCN2 [2]) of 3 to 50 µM.
In the case of `CCn1cc(Nc2ncc3nnn(-c4ccc(C(C)(C)OCCO)cc4)c3n2)cn1` [Compound A127, 2-(1-{4-[5-(1-ethyl-1H-pyrazol-4-ylamino)-[1,2,3]triazolo[4,5-d]pyrimidin-3-yl]-phenyl}-1-methyl-ethoxy)-ethanol], the IC50 (GCN2 [1]) is reported as less than 0.3 µM and the IC50 (GCN2 [2]) is reported as 0.3 to 3 µM.
In the case of `CCn1cc(Nc2ncc3nnn(-c4ccc(C(C)(C)F)cc4)c3n2)cn1` [Compound A128, (1-ethyl-1H-pyrazol-4-yl)-{3-[4-(1-fluoro-1-methyl-ethyl)-phenyl]-3H-[1,2,3]triazolo[4,5-d]pyrimidin-5-yl}-amine], the IC50 (GCN2 [1]) is reported as less than 0.3 µM and the IC50 (GCN2 [2]) is reported as 0.3 to 3 µM.
With `CC(C)(OCCO)c1ccc(-n2nnc3cnc(Nc4cnn(C5CCOCC5)c4)nc32)cc1` [Compound A130, 2-[1-methyl-1-(4-{5-[1-(tetrahydro-pyran-4-yl)-1H-pyrazol-4-ylamino]-[1,2,3]triazolo[4,5-d]pyrimidin-3-yl}-phenyl)-ethoxy]-ethanol] the IC50 (GCN2 [1]) was less than 0.3 µM and the IC50 (GCN2 [2]) was 0.3 to 3 µM.
